Reference: patent US9796733B2, “Imidazo-pyrazine derivatives useful as soluble guanylate cyclase activators” (Merck Sharp & Dohme Corp., priority 2014, dated 2017)

Experiments:
sGC α1/β1 heterodimer = target: T1, sGC α1/β1 heterodimer (Homo sapiens, UniProt Q02108+Q02153); test: Cell-based sGC functional assay (CASA assay): cGMP generation in CHO-K1/sGC cells, HTRF detection; settings: for Emax: CHO-K1, percent activation relative to standard Compound A in CHO-K1/sGC cells, read-out: % Act.; for EC50: inflection point (IP) of cGMP generation in CHO-K1/sGC cells, 4P fit, activity expressed as percentage of Compound A; for % Act.: percent activation relative to standard Compound A in CHO-K1/sGC cells
T1 construct: expressed in transfected cells; host or cells: CHO-K1 (clone #7, CHO-K1/sGC)
T1 sequence (Q02108 1-690): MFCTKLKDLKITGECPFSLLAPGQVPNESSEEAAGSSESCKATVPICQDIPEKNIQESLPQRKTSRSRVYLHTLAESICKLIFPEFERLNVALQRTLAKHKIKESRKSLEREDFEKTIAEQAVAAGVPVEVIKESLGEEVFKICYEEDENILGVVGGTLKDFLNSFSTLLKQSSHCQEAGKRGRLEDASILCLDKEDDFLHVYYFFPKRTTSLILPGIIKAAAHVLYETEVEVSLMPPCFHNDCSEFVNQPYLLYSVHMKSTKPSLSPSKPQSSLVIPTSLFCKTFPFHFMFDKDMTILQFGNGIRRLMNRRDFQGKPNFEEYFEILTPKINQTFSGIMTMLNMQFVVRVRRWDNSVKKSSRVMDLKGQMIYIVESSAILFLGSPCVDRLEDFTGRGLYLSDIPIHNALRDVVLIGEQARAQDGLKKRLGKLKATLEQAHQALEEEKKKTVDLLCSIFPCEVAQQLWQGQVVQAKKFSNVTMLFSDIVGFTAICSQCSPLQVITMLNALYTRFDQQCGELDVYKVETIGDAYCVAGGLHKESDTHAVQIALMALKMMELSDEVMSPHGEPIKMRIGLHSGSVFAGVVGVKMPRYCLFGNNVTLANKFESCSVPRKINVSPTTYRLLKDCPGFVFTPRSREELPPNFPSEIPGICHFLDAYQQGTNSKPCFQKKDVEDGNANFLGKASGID
T1 sequence (Q02153 1-619): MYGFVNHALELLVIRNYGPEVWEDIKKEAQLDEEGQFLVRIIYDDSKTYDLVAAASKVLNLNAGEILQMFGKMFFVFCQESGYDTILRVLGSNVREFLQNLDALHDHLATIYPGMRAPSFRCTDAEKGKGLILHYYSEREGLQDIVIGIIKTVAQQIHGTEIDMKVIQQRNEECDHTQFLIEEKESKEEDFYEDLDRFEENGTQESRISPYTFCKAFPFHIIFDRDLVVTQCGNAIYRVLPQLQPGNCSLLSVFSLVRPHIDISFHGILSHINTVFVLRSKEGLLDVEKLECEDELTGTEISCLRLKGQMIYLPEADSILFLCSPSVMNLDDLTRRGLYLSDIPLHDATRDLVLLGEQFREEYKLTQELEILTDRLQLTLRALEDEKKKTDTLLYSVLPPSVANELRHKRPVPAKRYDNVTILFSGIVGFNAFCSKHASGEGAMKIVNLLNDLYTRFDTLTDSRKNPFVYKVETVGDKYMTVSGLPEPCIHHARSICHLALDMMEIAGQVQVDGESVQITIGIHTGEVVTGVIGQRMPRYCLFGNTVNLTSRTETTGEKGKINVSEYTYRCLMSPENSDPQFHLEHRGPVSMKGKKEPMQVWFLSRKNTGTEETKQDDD
Summary of the method: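 cGMP was quantified by HTRF after 1 hr, 37° C exposure of thawed CHO-K1 cells expressing sGC α1/β1 to compound, with or without 1 μM DETA-NO. IBMX (0.5 mM) blocked cGMP breakdown, and DMSO was 2.5% final. Percent of standard Compound A's maximal cGMP was fitted (4P) for inflection point.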

[1] = system: Spontaneously hypertensive rats (SHR); test: Acute efficacy in spontaneously hypertensive rats (SHR): telemetry blood pressure lowering after a single oral dose; format: in vivo, rat
Source text: Acute Efficacy in Spontaneously Hypertensive Rats (SHR)
Spontaneously hypertensive rats (SHR, male, Charles River) were implanted with DSI TA11PA-C40 telemetry device (Data Sciences, Inc., St. Paul, Minn.) under isoflurane or ketamine/metomidine anesthesia. The telemetry unit catheter was inserted into the descending aorta via the femoral artery and the telemetry device was implanted subcutaneously in the left flank area. Animals were allowed to recover from surgery for 14 days before the start of any studies. Blood pressure, heart rate, and activity signals from conscious, freely moving rats were recorded continuously for 30 seconds every 10 minutes. On the day prior to administration of compound, a single oral dose of vehicle (10% transcutol/20% Cremophor/70% water) was administered to all animals to establish baseline control data. The blood pressure lowering efficacy of compound (PO) or vehicle was evaluated following a single oral gavage. Data were collected as hourly averages, and changes in blood pressure were calculated by subtracting control baseline data on an hourly basis. Animals were maintained on normal diet with a 12 hour light-dark cycle.
Maximum peak decreases of systolic blood pressure (SBP) in SHR at a particular P.O. dose (mpk milligrams per kilogram) for the following representative compounds are provided. Category A=SBP in SHRs<20 mmHg; Category B=SBP in SHRs 20-40 mmHg; Category C=SBP in SHRs>40 mmHg

Emax (sGC α1/β1 heterodimer) [%]	EC50 (sGC α1/β1 heterodimer) [nM]	% Act. (sGC α1/β1 heterodimer) [%]	SMILES	Maximum peak decrease of systolic blood pressure (SBP) in SHR, Cat. ([1]; P.O. 1.0 mpk)	Maximum peak decrease of systolic blood pressure (SBP) in SHR, Cat. ([1]; P.O. 3.0 mpk)	Maximum peak decrease of systolic blood pressure (SBP) in SHR, Cat. ([1]; P.O. 0.3 mpk)	Maximum peak decrease of systolic blood pressure (SBP) in SHR, Cat. ([1]; P.O. 2.0 mpk)
74	105		CCCc1nc(-c2nc(N)c3c(n2)NC(=O)C3(C)c2ccc(Cl)cc2)cn2ccnc12 (single isomer, unassigned) [Example 2A, 4-Amino-5-(4-chlorophenyl)-5-methyl-2-(8-propylimidazo[1,2-a]pyrazin-6-yl)-5H-pyrrolo[2,3-d]pyrimidin-6(7H)-one]	C (Category C=SBP in SHRs>40 mmHg)			
102	299		Cc1nnc(C2(C)C(=O)Nc3nc(-c4cn5ccnc5c(Cc5ccc(F)cc5)n4)nc(N)c32)o1 (single isomer, unassigned) [Example 29A, 4-Amino-2-(8-(4-fluorobenzyl)imidazo[1,2-a]pyrazin-6-yl)-5-methyl-5-(5-methyl-1,3,4-oxadiazol-2-yl)-5H-pyrrolo[2,3-d]pyrimidin-6(7H)-one]		B (Category B=SBP in SHRs 20-40 mmHg)		
113	358		CCc1nnc(C2(C3CC3)C(=O)Nc3nc(-c4cn5ccnc5c(CCC(F)(F)C(F)(F)F)n4)nc(N)c32)s1 (single isomer, unassigned) [Example 30A, 4-Amino-5-cyclopropyl-5-(5-ethyl-1,3,4-thiadiazol-2-yl)-2-(8-(3,3,4,4,4-pentafluorobutyl)imidazo[1,2-a]pyrazin-6-yl)-5H-pyrrolo[2,3-d]pyrimidin-6(7H)-one]		C (Category C=SBP in SHRs>40 mmHg)		
	7	103	Nc1nc(-c2cn3ccnc3c(Cc3cccc(F)c3)n2)nc2c1C(C(=O)NC1CC1)(C1CC1)C(=O)N2 (single isomer, unassigned) [Example 38B, 4-amino-N,5-dicyclopropyl-2-(8-(3-fluorobenzyl)imidazo[1,2-a]pyrazin-6-yl)-6-oxo-6,7-dihydro-5H-pyrrolo[2,3-d]pyrimidine-5-carboxamide]			B (Category B=SBP in SHRs 20-40 mmHg)	
95	424		Nc1nc(-c2cn3ccnc3c(CCC(F)(F)C(F)(F)F)n2)nc2c1C(C(=O)NC1CC1)(C1CC1)C(=O)N2 (single isomer, unassigned) [Example 61A, 4-amino-N,5-dicyclopropyl-6-oxo-2-(8-(3,3,4,4,4-pentafluorobutyl)imidazo[1,2-a]pyrazin-6-yl)-6,7-dihydro-5H-pyrrolo[2,3-d]pyrimidine-5-carboxamide]		B (Category B=SBP in SHRs 20-40 mmHg)		
	37	112	CC1(c2ccc(F)cc2)C(=O)Nc2nc(-c3cn4ccnc4c(CCC(F)(F)C(F)(F)F)n3)nc(N)c21 (single isomer, unassigned) [Example 68A, 4-Amino-5-(4-fluorophenyl)-5-methyl-2-(8-(3,3,4,4,4-pentafluorobutyl)imidazo[1,2-a]pyrazin-6-yl)-5H-pyrrolo[2,3-d]pyrimidin-6(7H)-one]			C (Category C=SBP in SHRs>40 mmHg)	
122	32		CC1(c2ccc(F)cc2)C(=O)Nc2nc(-c3cn4ccnc4c(Cc4cccc(F)c4)n3)nc(N)c21 (single isomer, unassigned) [Example 90A, 4-amino-2-(8-(3-fluorobenzyl)imidazo[1,2-a]pyrazin-6-yl)-5-(4-fluorophenyl)-5-methyl-5H-pyrrolo[2,3-d]pyrimidin-6(7H)-one]			C (Category C=SBP in SHRs>40 mmHg)	
121	578		CC1(c2ccc(F)cc2)C(=O)Nc2nc(-c3cn4ccnc4c(CCC(F)(F)C(F)(F)F)n3)nc(N)c21 (single isomer, unassigned) [Example 222B, 4-amino-5-(4-fluorophenyl)-5-methyl-2-(8-(3,3,4,4,4-pentafluorobutyl)imidazo [1,2-a]pyrazin-6-yl)-5H-pyrrolo[2,3-d]pyrimidin-6(7H)-one]		B (Category B=SBP in SHRs 20-40 mmHg)		
157	1310		Nc1nc(-c2cn3ccnc3c(CCC(F)(F)F)n2)nc2c1C(c1ccc(Cl)cn1)(C1CC1)C(=O)N2 (single isomer, unassigned) [Example 331B, 4-amino-5-(5-chloropyridin-2-yl)-5-cyclopropyl-2-(8-(3,3,3-trifluoropropyl)imidazo[1,2-a]pyrazin-6-yl)-5H-pyrrolo[2,3-d]pyrimidin-6(7H)-one]		B (Category B=SBP in SHRs 20-40 mmHg)		
81	84		CC1(c2noc(C3CC3)n2)C(=O)Nc2nc(-c3cn4ccnc4c(CCC(F)(F)C(F)(F)F)n3)nc(N)c21 (single isomer, unassigned) [Example 333B, 4-amino-5-(5-cyclopropyl-1,2,4-oxadiazol-3-yl)-5-methyl-2-(8-(3,3,4,4,4-pentafluorobutyl)imidazo[1,2-a]pyrazin-6-yl)-5H-pyrrolo[2,3-d]pyrimidin-6(7H)-one]				B (Category B=SBP in SHRs 20-40 mmHg)
177	695		Cc1cnc(C2(C3CC3)C(=O)Nc3nc(-c4cn5ccnc5c(CCC(F)(F)C(F)(F)F)n4)nc(N)c32)cn1 (single isomer, unassigned) [Example 342B, 4-amino-5-cyclopropyl-5-(5-methylpyrazin-2-yl)-2-(8-(3,3,4,4,4-pentafluorobutyl)imidazo[1,2-a]pyrazin-6-yl)-5H-pyrrolo[2,3-d]pyrimidin-6(7H)-one]	A (Category A=SBP in SHRs<20 mmHg)			
163	51		Nc1nc(-c2cn3ccnc3c(CCC(F)(F)C(F)(F)F)n2)nc2c1C(c1ccc(F)cc1)(C1CCC1)C(=O)N2 (single isomer, unassigned) [Example 344B, 4-amino-5-cyclobutyl-5-(4-fluorophenyl)-2-(8-(3,3,4,4,4-pentafluorobutyl)imidazo[1,2-a]pyrazin-6-yl)-5H-pyrrolo[2,3-d]pyrimidin-6(7H)-one]			A (Category A=SBP in SHRs<20 mmHg)	
148	949		Nc1nc(-c2cn3ccnc3c(CCC(F)(F)F)n2)nc2c1C(c1ccc(F)cc1)(C1CCC1)C(=O)N2 (single isomer, unassigned) [Example 345B, 4-amino-5-cyclobutyl-5-(4-fluorophenyl)-2-(8-(3,3,3-trifluoropropyl)imidazo[1,2-a]pyrazin-6-yl)-5H-pyrrolo[2,3-d]pyrimidin-6(7H)-one]		A (Category A=SBP in SHRs<20 mmHg)		
